Source: ChEMBL document CHEMBL1201862, “PubChem BioAssay data set” (2004)
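Step 1: Grow cells in 96-well plates. Step 2: Expose to compound for 48 hours at 5 concentrations. Step 3: Interpolate endpoints linearly; if unreached, use highest concentration. The concentration for 50% growth inhibition is given as GI50.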 Calls of active or inactive are those of the source. Cut-off read from the data, not from the text of the source: active = GI50 up to about 1.1 µM and inactive = higher.

What was measured:
Experiment in all cases: NCI anticancer screen, dose series, 48 h
HOP-62 = tested on: HOP-62
HL-60 = tested on: HL-60
HOP-18 = tested on: HOP-18
OVCAR-5 = tested on: OVCAR-5
NCI-H226 = tested on: NCI-H226
RPMI-8226 = tested on: RPMI-8226
OVCAR-8 = tested on: OVCAR-8
SR = tested on: SR
LXFL 529 = tested on: LXFL 529
HT-29 = tested on: HT-29
SNB-19 = tested on: SNB-19
CAKI-1 = tested on: CAKI-1
SW-620 = tested on: SW-620
OVCAR-4 = tested on: OVCAR-4
SK-OV-3 = tested on: SK-OV-3
KM-20L2 = tested on: KM-20L2
IGROV-1 = tested on: IGROV-1
SNB-75 = tested on: SNB-75
HCT-116 = tested on: HCT-116
HOP-92 = tested on: HOP-92
SN12C = tested on: SN12C
HCT-15 = tested on: HCT-15
OVCAR-3 = tested on: OVCAR-3
UO-31 = tested on: UO-31
SNB-78 = tested on: SNB-78
SK-MEL-2 = tested on: SK-MEL-2
COLO 205 = tested on: COLO 205
NCI-H460 = tested on: NCI-H460
Malme-3M = tested on: Malme-3M
U-251 = tested on: U-251
M19-MEL = tested on: M19-MEL
786-0 = tested on: 786-0
A498 = tested on: A498
SK-MEL-28 = tested on: SK-MEL-28
NCI-H23 = tested on: NCI-H23
SF-539 = tested on: SF-539
RXF 631 = tested on: RXF 631
SK-MEL-5 = tested on: SK-MEL-5
SF-295 = tested on: SF-295
MOLT-4 = tested on: MOLT-4
UACC-257 = tested on: UACC-257
EKVX = tested on: EKVX
A549 = tested on: A549
DLD-1 = tested on: DLD-1
M14 = tested on: M14
KM12 = tested on: KM12
DMS-273 = tested on: DMS-273
ACHN = tested on: ACHN
NCI-H522 = tested on: NCI-H522
K562 = tested on: K562
CCRF-CEM = tested on: CCRF-CEM
HCC 2998 = tested on: HCC 2998
RXF 393 = tested on: RXF 393
LOX IMVI = tested on: LOX IMVI
UACC-62 = tested on: UACC-62
SF-268 = tested on: SF-268
DMS-114 = tested on: DMS-114
TK-10 = tested on: TK-10

Measured: GI50

COc1ccc2c(c1)[n+]([O-])c(-c1nc3ccccc3s1)c(N)[n+]2[O-]
inactive: HOP-62 > 100 µM | HL-60 39.4 µM | HOP-18 > 100 µM | OVCAR-5 > 100 µM | NCI-H226 > 100 µM | RPMI-8226 35.5 µM | OVCAR-8 > 100 µM | SR 59.6 µM | LXFL 529 58.1 µM | HT-29 > 100 µM | SNB-19 > 100 µM | CAKI-1 > 100 µM | SW-620 > 100 µM | OVCAR-4 > 100 µM | SK-OV-3 > 100 µM | KM-20L2 > 100 µM | IGROV-1 > 100 µM | SNB-75 39.1 µM | HCT-116 54.3 µM | HOP-92 > 100 µM | SN12C > 100 µM | OVCAR-3 78.7 µM | UO-31 34 µM | SNB-78 > 100 µM | SK-MEL-2 > 100 µM | COLO 205 36.5 µM | NCI-H460 47.3 µM | Malme-3M > 100 µM | U-251 78 µM | M19-MEL 49.7 µM | 786-0 > 100 µM | A498 45.8 µM | SK-MEL-28 55.6 µM | NCI-H23 64.9 µM | SF-539 > 100 µM | RXF 631 88.5 µM | SK-MEL-5 38.8 µM | SF-295 > 100 µM | MOLT-4 43.8 µM | UACC-257 63.5 µM | EKVX > 100 µM | A549 > 100 µM | DLD-1 69.2 µM | M14 > 100 µM | KM12 > 100 µM | DMS-273 > 100 µM | ACHN 93.1 µM | NCI-H522 51.3 µM | K562 64.4 µM
89.5 µM: HCT-15

COC(=O)Cc1nn2c(nc1=O)sc1ccc3ccccc3c12
> 100 µM: HCT-15
inactive: HOP-62 72.1 µM | HL-60 > 100 µM | HOP-18 > 100 µM | OVCAR-5 > 100 µM | NCI-H226 > 100 µM | OVCAR-8 43.2 µM | SR > 100 µM | LXFL 529 > 100 µM | HT-29 > 100 µM | SNB-19 > 100 µM | CAKI-1 50.2 µM | CCRF-CEM > 100 µM | SW-620 > 100 µM | OVCAR-4 > 100 µM | SK-OV-3 > 100 µM | KM-20L2 > 100 µM | IGROV-1 > 100 µM | SNB-75 37.3 µM | HCT-116 > 100 µM | HOP-92 63.8 µM | SN12C > 100 µM | OVCAR-3 > 100 µM | UO-31 > 100 µM | SK-MEL-2 93.8 µM | COLO 205 > 100 µM | NCI-H460 62.7 µM | Malme-3M > 100 µM | U-251 25.1 µM | M19-MEL > 100 µM | 786-0 44.3 µM | A498 > 100 µM | SK-MEL-28 > 100 µM | NCI-H23 > 100 µM | SF-539 > 100 µM | RXF 631 91.6 µM | HCC 2998 > 100 µM | SK-MEL-5 > 100 µM | MOLT-4 > 100 µM | UACC-257 > 100 µM | EKVX > 100 µM | A549 > 100 µM | DLD-1 > 100 µM | M14 > 100 µM | KM12 > 100 µM | ACHN 56.9 µM | NCI-H522 37.2 µM | RXF 393 50.7 µM | K562 > 100 µM | LOX IMVI 67.3 µM

[O-][S+]1Nc2c(Cl)cc(Cl)c3c(Cl)cc(Cl)c(c23)N1
inactive: HL-60 34.2 µM | HOP-18 34.1 µM | OVCAR-5 27.8 µM | NCI-H226 25.1 µM | RPMI-8226 37.8 µM | OVCAR-8 32.4 µM | LXFL 529 40.3 µM | HT-29 41.9 µM | UACC-62 22.3 µM | SF-268 34.6 µM | SNB-19 40.3 µM | CAKI-1 32.4 µM | CCRF-CEM 31.6 µM | SW-620 37.2 µM | OVCAR-4 25.6 µM | SK-OV-3 45.7 µM | KM-20L2 46.5 µM | IGROV-1 58.5 µM | SNB-75 26.1 µM | HCT-116 34.1 µM | HOP-92 21.3 µM | SN12C 34.6 µM | OVCAR-3 30.6 µM | UO-31 51.8 µM | SK-MEL-2 47 µM | COLO 205 > 100 µM | Malme-3M 43.8 µM | U-251 28.2 µM | M19-MEL 32.4 µM | 786-0 18.5 µM | A498 21.9 µM | SK-MEL-28 62.8 µM | DMS-114 36.3 µM | NCI-H23 29.1 µM | SF-539 36.7 µM | RXF 631 31.8 µM | HCC 2998 28.4 µM | SK-MEL-5 37.8 µM | SF-295 53.1 µM | MOLT-4 22.6 µM | UACC-257 54.7 µM | EKVX 59.7 µM | A549 29.6 µM | DLD-1 28.6 µM | TK-10 42.6 µM | M14 31.8 µM | KM12 44.6 µM | DMS-273 39.4 µM | ACHN 27.7 µM | NCI-H522 22.7 µM | RXF 393 21.9 µM | K562 41.5 µM | LOX IMVI 32.8 µM
32.1 µM: HCT-15

COc1cc(Cl)c2c3c(c(C(C)=O)oc13)CCC2
inactive: HOP-62 > 100 µM | HL-60 > 100 µM | HOP-18 > 100 µM | RPMI-8226 86.9 µM | OVCAR-8 > 100 µM | LXFL 529 > 100 µM | HT-29 > 100 µM | UACC-62 > 100 µM | SNB-19 > 100 µM | CAKI-1 > 100 µM | CCRF-CEM > 100 µM | SW-620 > 100 µM | OVCAR-4 > 100 µM | SK-OV-3 > 100 µM | KM-20L2 > 100 µM | IGROV-1 > 100 µM | SNB-75 > 100 µM | HCT-116 > 100 µM | HOP-92 92.9 µM | SN12C > 100 µM | OVCAR-3 > 100 µM | SNB-78 > 100 µM | COLO 205 > 100 µM | NCI-H460 > 100 µM | U-251 > 100 µM | M19-MEL > 100 µM | 786-0 > 100 µM | A498 > 100 µM | SK-MEL-28 > 100 µM | DMS-114 > 100 µM | NCI-H23 > 100 µM | SF-539 > 100 µM | RXF 631 > 100 µM | HCC 2998 > 100 µM | SK-MEL-5 > 100 µM | SF-295 > 100 µM | UACC-257 > 100 µM | EKVX > 100 µM | A549 > 100 µM | DLD-1 > 100 µM | TK-10 > 100 µM | M14 > 100 µM | DMS-273 > 100 µM | ACHN > 100 µM | RXF 393 85.1 µM | K562 > 100 µM | LOX IMVI > 100 µM
> 100 µM: HCT-15

O=C(Cc1nc2ccccc2o1)C(=O)Nc1cccc(C(F)(F)F)c1
> 100 µM: HCT-15
inactive: HOP-62 > 100 µM | HL-60 > 100 µM | HOP-18 45 µM | OVCAR-5 > 100 µM | NCI-H226 > 100 µM | RPMI-8226 > 100 µM | OVCAR-8 > 100 µM | LXFL 529 > 100 µM | HT-29 > 100 µM | UACC-62 > 100 µM | SF-268 > 100 µM | SNB-19 > 100 µM | CAKI-1 > 100 µM | CCRF-CEM > 100 µM | SW-620 > 100 µM | OVCAR-4 > 100 µM | SK-OV-3 > 100 µM | KM-20L2 > 100 µM | IGROV-1 > 100 µM | SNB-75 > 100 µM | HCT-116 > 100 µM | HOP-92 > 100 µM | SN12C > 100 µM | OVCAR-3 > 100 µM | UO-31 > 100 µM | SNB-78 > 100 µM | SK-MEL-2 > 100 µM | COLO 205 > 100 µM | NCI-H460 > 100 µM | Malme-3M > 100 µM | U-251 > 100 µM | M19-MEL > 100 µM | 786-0 > 100 µM | A498 > 100 µM | SK-MEL-28 > 100 µM | DMS-114 > 100 µM | NCI-H23 > 100 µM | SF-539 > 100 µM | RXF 631 > 100 µM | HCC 2998 > 100 µM | SK-MEL-5 > 100 µM | SF-295 > 100 µM | MOLT-4 > 100 µM | UACC-257 > 100 µM | EKVX > 100 µM | A549 > 100 µM | DLD-1 > 100 µM | TK-10 > 100 µM | M14 > 100 µM | KM12 > 100 µM | DMS-273 > 100 µM | ACHN > 100 µM | NCI-H522 > 100 µM | K562 > 100 µM | LOX IMVI > 100 µM
